According to patent US20250171438A1 (Agios Pharmaceuticals, Inc., priority 2022, published 2025):

biological target: T1, human PAH with the R408W mutation (Homo sapiens, UniProt P00439, R408W); test: Cell Based Phenylalanine Flux Assay; design: scale not given here; settings: A375 cells expressing human R408W PAH; 24 hrs compound incubation; 13C-Tyrosine by LC-MS; average where tested multiple times; read-out: AC50
T1 construct: expressed in transfected cells
T1 sequence (P00439 1-452 R408W): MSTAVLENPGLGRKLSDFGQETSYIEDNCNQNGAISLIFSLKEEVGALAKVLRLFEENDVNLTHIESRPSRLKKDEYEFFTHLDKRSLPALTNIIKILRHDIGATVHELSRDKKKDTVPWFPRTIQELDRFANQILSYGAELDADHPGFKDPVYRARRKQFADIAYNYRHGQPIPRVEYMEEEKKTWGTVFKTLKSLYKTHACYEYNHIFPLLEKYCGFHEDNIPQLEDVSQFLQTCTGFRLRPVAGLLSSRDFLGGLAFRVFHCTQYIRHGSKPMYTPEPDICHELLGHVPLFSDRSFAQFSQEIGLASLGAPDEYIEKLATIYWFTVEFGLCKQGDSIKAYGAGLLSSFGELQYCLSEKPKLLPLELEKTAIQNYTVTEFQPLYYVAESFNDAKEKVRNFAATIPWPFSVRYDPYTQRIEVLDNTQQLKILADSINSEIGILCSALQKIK

Row | Molecule | AC50
1 | CC(C)(O)c1nc(C(F)(F)F)c(C(=O)N2CCc3[nH]cnc3[C@H]2c2nc3c(F)cccc3s2)o1 [Example 1541, (S)-(4-(4-fluorobenzo[d]thiazol-2-yl)-6,7-dihydro-1H-imidazo[4,5-c]pyridin-5(4H)-yl)(2-(2-hydroxypropan-2-yl)-4-(trifluoromethyl)oxazol-5-yl)methanone] | < 500 nM
2 | O=C(c1oc(N2CCOCC2)nc1Br)N1CCc2[nH]cnc2[C@H]1c1nc2c(F)cccc2s1 [Example 2033] | < 500 nM
3 | O=C(c1cnn2cc(CN3CCOCC3)ccc12)N1CCc2[nH]cnc2[C@@H]1c1nc2ccccc2s1 [Example 2156, (R)-(4-(benzo[d]thiazol-2-yl)-6,7-dihydro-1H-imidazo[4,5-c]pyridin-5(4H)-yl)(6-(morpholinomethyl)pyrazolo[1,5-a]pyridin-3-yl)methanone] | > 5000 nM
4 | O=C(c1cnn2c(Br)cccc12)N1CCc2[nH]cnc2[C@@H]1c1nc2c(F)cccc2s1 [Example 1240, (R)-(7-bromopyrazolo[1,5-a]pyridin-3-yl)(4-(4-fluorobenzo[d]thiazol-2-yl)-6,7-dihydro-1H-imidazo[4,5-c]pyridin-5(4H)-yl)methanone] | 1000 to 5000 nM
5 | O=C(c1cnn2ccc(Cl)cc12)N1CCc2[nH]cnc2[C@@H]1c1nc2cccc(F)c2s1 [Example 1302, (R)-(5-chloropyrazolo[1,5-a]pyridin-3-yl)(4-(7-fluorobenzo[d]thiazol-2-yl)-6,7-dihydro-1H-imidazo[4,5-c]pyridin-5(4H)-yl)methanone] | < 500 nM
6 | O=C(CCC1CCCC1)N1CCc2[nH]cnc2[C@@H]1c1nc2ccccc2s1 [Example 1016, (R)-1-(4-(benzo[d]thiazol-2-yl)-6,7-dihydro-1H-imidazo[4,5-c]pyridin-5(4H)-yl)-3-cyclopentylpropan-1-one] | 1000 to 5000 nM
7 | O=C(c1cnn(-c2ccccn2)c1Cl)N1CCc2[nH]cnc2[C@H]1c1nc2ccccc2s1 [Example 1895] | 500 to 1000 nM
8 | O=C(c1cnn2cc(CN3CCC(F)(F)C3)ccc12)N1CCc2[nH]cnc2[C@@H]1c1nc2ccccc2s1 [Example 1314, (R)-(4-(benzo[d]thiazol-2-yl)-6,7-dihydro-1H-imidazo[4,5-c]pyridin-5(4H)-yl)(6-((3,3-difluoropyrrolidin-1-yl)methyl)pyrazolo[1,5-a]pyridin-3-yl)methanone] | > 5000 nM
9 | ((4R,7R)-4-(benzo[d]thiazol-2-yl)-7-methyl-6,7-dihydro-1H-imidazo[4,5- [Example 1587] | 1000 to 5000 nM
10 | O=C(c1ccnn1C(F)(F)F)N1CCc2[nH]cnc2[C@@H]1c1nc2ccccc2s1 [Example 2098, (R)-(4-(benzo[d]thiazol-2-yl)-6,7-dihydro-1H-imidazo[4,5-c]pyridin-5(4H)-yl)(1-(trifluoromethyl)-1H-pyrazol-5-yl)methanone] | 500 to 1000 nM
11 | O=C(c1nnc(-n2cccn2)o1)N1CCc2[nH]cnc2[C@@H]1c1nc2ccccc2s1 [Example 1791, (R)-(5-(1H-pyrazol-1-yl)-1,3,4-oxadiazol-2-yl)(4-(benzo[d]thiazol-2-yl)-6,7-dihydro-1H-imidazo[4,5-c]pyridin-5(4H)-yl)methanone] | 1000 to 5000 nM
12 | Cc1nc(C)c(C(=O)N2CCc3[nH]cnc3[C@H]2c2nc3ccccc3s2)o1 [Example 1163] | < 500 nM
13 | Cn1ncnc1C(=O)N1CCc2[nH]cnc2[C@@H]1c1nc2c(C(F)(F)F)cccc2s1 [Example 2102, (R)-(1-methyl-1H-1,2,4-triazol-5-yl)(4-(4-(trifluoromethyl)benzo[d]thiazol-2-yl)-6,7-dihydro-1H-imidazo[4,5-c]pyridin-5(4H)-yl)methanone] | 1000 to 5000 nM
14 | O=C(c1cnn(CC2CC2)c1Cl)N1CCc2[nH]cnc2[C@H]1c1nc2c(F)cccc2s1 [Example 1971, (S)-(5-chloro-1-(cyclopropylmethyl)-1H-pyrazol-4-yl)(4-(4-fluorobenzo[d]thiazol-2-yl)-6,7-dihydro-1H-imidazo[4,5-c]pyridin-5(4H)-yl)methanone] | 500 to 1000 nM
15 | CC(=O)Cn1cc(C(=O)N2CCc3[nH]cnc3[C@@H]2c2nc3c(F)cccc3s2)c(Cl)n1 [Example 1992, (R)-1-(3-chloro-4-(4-(4-fluorobenzo[d]thiazol-2-yl)-4,5,6,7-tetrahydro-1H-imidazo[4,5-c]pyridine-5-carbonyl)-1H-pyrazol-1-yl)propan-2-one] | > 5000 nM
16 | Cn1cc(-c2ncc(C(=O)N3CCc4[nH]cnc4[C@H]3c3nc4ccccc4s3)s2)c(C2CC2)n1 [Example 1385] | < 500 nM
17 | O=C(c1cnc(N2CCCC2)s1)N1CCc2[nH]cnc2[C@H]1c1nc2ccccc2s1 [Example 1323] | < 500 nM
18 | O=C(c1cnn2ccccc12)N1CCc2[nH]cnc2[C@@H]1c1nc2c(Cl)cccc2s1 [Example 1222, (R)-(4-(4-chlorobenzo[d]thiazol-2-yl)-6,7-dihydro-1H-imidazo[4,5-c]pyridin-5(4H)-yl)(pyrazolo[1,5-a]pyridin-3-yl)methanone] | 1000 to 5000 nM

same assay, conditions: A375 cells expressing human R408W PAH; 24 hrs with compound; 13C-Tyrosine by LC-MS; average where tested multiple times

Row | Molecule | AC50
19 | COCCc1ncc(C(=O)N2CC(C)c3[nH]cnc3C2c2nc3ccccc3s2)o1 [(4R,7S) diastereomer of 2-[5-[2-(2-methoxyethyl)-1,3-oxazole] | E, E

same assay, conditions: A375 cells expressing human R408W PAH; 24 hrs with compound; 13C-Tyrosine by LC-MS; average where tested multiple times; read-out: AC50

Row | Molecule | AC50
20 | O=C(c1cnn(CCO)c1Cl)N1CCc2[nH]cnc2C1c1nc2c(F)cccc2s1 (stereo not shown) | > 5000 nM
21 | Cc1nnc(N2CCc3[nH]cnc3C2c2nc3ccccc3[nH]2)o1 (stereo not shown) | > 5000 nM
22 | CN(C)CCCc1nnc(C(=O)N2CCc3[nH]cnc3[C@H]2c2nc3ccccc3s2)o1 (single isomer, unassigned) | 1000 to 5000 nM
23 | O=C(C1CCCC1)N1CCc2[nH]cnc2[C@H]1c1nc2ccccc2[nH]1 [(S)-(4-(1H-benzo[d]imidazol-2-yl)-1,4,6,7-tetrahydro-5H-imidazo[4,5-c]pyridin-5-yl)(cyclopentyl)methanone] | 1000 to 5000 nM
24 | O=C(c1ncco1)N1CCc2[nH]cnc2C1c1nc2ccccc2s1 (stereo not shown) | 1000 to 5000 nM
25 | O=C(c1cnn2cc(Br)ccc12)N1CCc2[nH]cnc2C1c1nc2ccc(F)cc2s1 (stereo not shown) | 1000 to 5000 nM
26 | CC(C)(O)c1nc(C(=O)N2CCc3[nH]cnc3C2c2nc3c(F)cccc3s2)no1 (stereo not shown) | 1000 to 5000 nM
27 | O=C(c1nc2ccccc2s1)N1CCc2[nH]cnc2C1c1nc2ccccc2[nH]1 (stereo not shown) | 1000 to 5000 nM
28 | O=C(c1ccc(F)cc1)N1CCc2[nH]cnc2C1c1nc2ccccc2[nH]1 (stereo not shown) | 1000 to 5000 nM
29 | O=C(CCc1cscn1)N1CCc2[nH]cnc2[C@H]1c1nc2ccccc2[nH]1 [(S)-1-(4-(1H-benzo[d]imidazol-2-yl)-1,4,6,7-tetrahydro-5H-imidazo[4,5-c]pyridin-5-yl)-3-(thiazol-4-yl)propan-1-one] | 1000 to 5000 nM
30 | CC(C)(O)c1cc(C(=O)N2CCc3[nH]cnc3C2c2nc3ccccc3s2)no1 (stereo not shown) | 1000 to 5000 nM
31 | O=C(C1CC1F)N1CCc2[nH]cnc2C1c1nc2ccccc2s1 (stereo not shown) | 1000 to 5000 nM
32 | O=C(CC1CC1)N1CCc2[nH]cnc2C1c1nc2c(F)cccc2s1 (stereo not shown) | > 5000 nM
33 | Cn1ncc(C(=O)N2CCc3[nH]cnc3C2c2nc3c(F)cccc3s2)c1Br (stereo not shown) | 1000 to 5000 nM
34 | O=C(CCc1nccs1)N1CCc2[nH]cnc2C1c1nc2cc(F)ccc2s1 (stereo not shown) | > 5000 nM
35 | Cc1nnc(C(=O)N2CC(C)c3[nH]cnc3C2c2nc3ccccc3s2)o1 (stereo not shown) | > 5000 nM
36 | O=C(Cc1nc(C(F)(F)F)cs1)N1CCc2[nH]cnc2C1c1nc2ccc(Br)cc2[nH]1 (stereo not shown) | 1000 to 5000 nM
37 | O=C(c1oc(-c2ccccn2)nc1C1CC1)N1CCCc2[nH]cnc2C1c1nc2ccccc2[nH]1 (stereo not shown) | > 5000 nM
